We go through seven compounds from patent publication US20250154112A1, “A PREPARATION OF QUINAZOLINEDIONES AND USE THEREOF” (COUNCIL OF SCIENTIFIC AND INDUSTRIAL RESEARCH AN INDIAN …, priority 2021, published 2025).

Data set [1] can be described thus: Lipophilicity assay (octanol/buffer Log D). The note with it: pH 7.4, n-octanol/sodium phosphate buffer. It counts as physicochemical. The protocol:
1.56 g NaH2PO4·2H2O was dissolved in 0.5 L water in a 1 L beaker. After adjusting pH to 7.4 using NaOH solution, the volume was made up to 1 L. Equal volumes of sodium phosphate buffer (10 mM, pH 7.4) and n-octanol were added to a separation funnel and mixed thoroughly by shaking and inverting the funnel several times. The two layers were allowed to separate for overnight and then dispensed in two separate glass bottles. 10 mM stock solution was prepared in 100% DMSO and stored at 4° C. 495 μL of organic phase (1-octanol) was added to each well of a 2 mL deep well plate, followed by 495 μL of buffer and 10 μL of test substance was added. The plate was incubated for 3 hrs at room temperature on a plate shaker at 500 rpm. After incubation, the samples were allowed to equilibrate for 20 min and then centrifuged at 4000 rpm for 30 min for complete phase separation and analysed by LC-UV. Log D=Log (area of octanol/area of buffer)

Data set [2] relates to ATGL. Kind of data set: Western blot of ATGL level in HepG2 cells after compound treatment. The note with it: 24 hours; for ATGL level (Western Blot): 50 nM to 5 μM dose dependent, with respect to control; for induction of ATGL (Western Blot): 5 μM. The data set is classed as cell-based. On the procedure: (§1) HepG2 cells were treated with the compounds 5, 8, 11, 59, 62, 91, 94 (50 nM, 100 nM, 200 nM, 500 nM, 1 μM and 5 μM for dose dependent assays) for 24 hours. After removing media from the cells, the wells were washed with 1×PBS twice to remove any remnant media. Cells were then lysed in lysis buffer containing 50 mM Tris-HCl (pH 7.4), 100 mM NaCl, 1 mM EDTA, 1 mM EGTA, 1% Triton X-100 and protease inhibitor cocktail (Millipore, Billierica, MA, USA). Following centrifugation at 20,000 g for 20 minutes, the protein solution was extracted from the cells. Protein was estimated using Bradford assay. Bradford's reagent (BioRad) was diluted in 1:4 ratio in double distilled water. 2 μl of protein sample was added to 100 μl of the reagent and absorbance was measured at 595 nm. 30 μg of protein was diluted in lysis buffer. 1X loading buffer diluted from 5X stock containing 250 mM Tris-HCl (pH 6.8), 10% SDS, 50% glycerol, 0.1% bromophenol Blue and 10% β-mercaptoethanol was added. The protein samples were then heated at 95° C. for 10 minutes, cooled and centrifuged at 12,000 g for 2 minutes prior to loading.
(§2) For western blotting, the proteins were resolved in 10% SDS PAGE (discontinuous buffer system). 1X running buffer containing SDS, Tris Base and Glycine was used to run the gel at 80V for approximately 2 hours. Transfer was done using PVDF membrane (Millipore) having pore size of 0.45 μm. 1X transfer buffer containing Tris-Base, Glycine and 20% methanol was used for wet transfer. Transfer was done at 90V for 3 hours. Following transfer, the PVDF membrane containing the proteins were washed in 1×PBST comprising of 1×PBS and 1% Tween 20 (Sigma Aldrich). The membrane was then incubated for 1 hour at room temperature in 5% skim milk powder to block the non-specific sites. Following multiple washes with 1×PBST to wash away any remaining blocking buffer, the required primary antibody (COP1 [BethylLaboraties], ATGL [Cell Signalling Technology] or Actin[Cell Signalling Technology]) prepared with 1×PBST, 1% Bovine Serum Albumin and 0.04% Sodium Azide was added to the membrane and incubated overnight at 4° C. The next day, the membrane was again washed multiple times with 1×PBST to remove any unbound primary antibody. The membrane was then incubated with goat anti-rabbit secondary antibody (Genei) for 1 hour at room temperature and washed again for multiple times with 1×PBST. The membrane was then developed using Clarity™ ECL Western Blotting Substrate (BioRad) and viewed in ChemiDoc (BioRad).
as §1, with “62, 65,” for “62,”, “at” for “(50 nM, 100 nM, 200 nM, 500 nM, 1 μM and”, “μM” for “μM for dose dependent assays)”, “cocktail 1” for “cocktail”
(A western blot detects proteins with antibodies after separation by electrophoresis.)

A further data set concerns the target T1, COP1 (Homo sapiens, UniProt Q8NHY2).
T1 construct: endogenous in cells; host or cells: HepG2
Kind of data set: Western blot of COP1 level in HepG2 cells after compound treatment. It counts as cell-based. The following applies: 5 μM, 24 hours. On the procedure:
as §1, with “62, 65,” for “62,”, “at” for “(50 nM, 100 nM, 200 nM, 500 nM, 1 μM and”, “μM” for “μM for dose dependent assays)”, “cocktail 1” for “cocktail”
as §2

The subject of data set [3] is ATGL. Kind of data set: Fold change in ATGL by densitometric analysis. The data set is classed as cell-based. The note with it: fold change of ATGL with respect to control, normalized with actin. On the procedure:
Densitimetric analysis was performed by image J to calculate the fold change of ATGL with respect to control. The values were normalized with actin.

The nature of data set [4]: Determination of EC50 (in-vitro).
A further data set in a line: Plasma stability assay. The data set is classed as in vitro ADME. The note with it: 1 μM, 37° C. The protocol:
1 mM Stock of test compound was prepared from 10 mM initial stock solution of compounds by diluting 10 μL of 10 mM stock with 90 μL of DMSO. Then 10 μL of 1 mM stock was diluted with 90 μL of DMSO to give 100 μM concentration. The frozen plasma was thawed at room temperature and centrifuged at 1400 rpm at 4° C., for 15 minutes. Approximately 90% of the clear supernatant fraction was transferred to a separate tube and was used for the assay. Final working stock of 1 μM was prepared by diluting 3 μL of 100 μM with 297 μL of plasma. Plasma containing the test compound was incubated for 120 min at 37° C. in shaker with 500 rpm. 50 μL of aliquot of sample at 0, 15, 30, 60 and 120 minutes were precipitated with 150 μL of acetonitrile containing internal standard and centrifuged at 4000 rpm at 4° C. for 20 minutes. 120 μL of supernatant was diluted with 120 μL of water and analysed by LC-MS/MS.

A short description of another data set: Kinetic solubility. The data set is classed as physicochemical. The note with it: pH 7.4 phosphate buffer (PBS), aqueous buffer, kinetic from dmso stock, room temperature, 1.0% DMSO. On the procedure:
PBS sachet was dissolved in 0.9 L of Milli Q water and pH was adjusted to 7.4. Final volume was made up to 1 L with the water and stored at ambient temperature 21-25° C. […] 4 μL from the 50 mM stock solution were added to deep well plate containing 396 μL of pH 7.4 phosphate buffer, mixed and incubated for 24 hours at room temperature with constant mixing at 300 rpm. The plate was sealed well during the incubation process. After incubation, the samples were centrifuged for 20 min at 4000 rpm. The supernatant was analysed by HPLC-UV. The DMSO content in the sample was 1.0%. The final concentration of the compound in deep well plate was 500 μM.

A short description of data set [5]: Metabolic stability using human liver microsomes (HLM). It counts as in vitro ADME. The protocol:
1 mM stock solution of test compound was prepared in DMSO and diluted with Acetonitrile:Water (1:1) to get a 100 μM working concentration. 100 mL of Milli Q water was added to K2HPO4 (1.398 g) and KH2PO4 (0.27 g) to get final pH 7.4 solution of potassium phosphate buffer. […] The above mixture was pre incubated for 15 minutes at 37° C. After pre incubation, 32.5 μL of the mixture was added to 17.5 μL of buffer, this was incubated for 60 minutes at 37° C. [60 min Without Cofactor (NADPH)]. 16.25 μL of the pre incubated mixture and 8.75 μL of cofactor was added to 150 μL of acetonitrile containing internal standard [0 min Sample]. 62 μL of cofactor was added to remaining pre incubation mixture [Incubation mixture]. 25 μL of incubation mixture at 0, 5, 15, 30, 60 min and 60 min without cofactor were precipitated with 150 μL of acetonitrile containing internal standard, vortexed and centrifuged at 4000 rpm at 4° C. for 20 minutes. 120 μL of supernatant was diluted with 120 μL of water and analyzed by LC-MS/MS [sample preparation].
In general terms: Liver microsomes are a subcellular fraction often used to study metabolism.

Converted amounts (≈) assume the structure as drawn.

T1 sequence (Q8NHY2 whole entry): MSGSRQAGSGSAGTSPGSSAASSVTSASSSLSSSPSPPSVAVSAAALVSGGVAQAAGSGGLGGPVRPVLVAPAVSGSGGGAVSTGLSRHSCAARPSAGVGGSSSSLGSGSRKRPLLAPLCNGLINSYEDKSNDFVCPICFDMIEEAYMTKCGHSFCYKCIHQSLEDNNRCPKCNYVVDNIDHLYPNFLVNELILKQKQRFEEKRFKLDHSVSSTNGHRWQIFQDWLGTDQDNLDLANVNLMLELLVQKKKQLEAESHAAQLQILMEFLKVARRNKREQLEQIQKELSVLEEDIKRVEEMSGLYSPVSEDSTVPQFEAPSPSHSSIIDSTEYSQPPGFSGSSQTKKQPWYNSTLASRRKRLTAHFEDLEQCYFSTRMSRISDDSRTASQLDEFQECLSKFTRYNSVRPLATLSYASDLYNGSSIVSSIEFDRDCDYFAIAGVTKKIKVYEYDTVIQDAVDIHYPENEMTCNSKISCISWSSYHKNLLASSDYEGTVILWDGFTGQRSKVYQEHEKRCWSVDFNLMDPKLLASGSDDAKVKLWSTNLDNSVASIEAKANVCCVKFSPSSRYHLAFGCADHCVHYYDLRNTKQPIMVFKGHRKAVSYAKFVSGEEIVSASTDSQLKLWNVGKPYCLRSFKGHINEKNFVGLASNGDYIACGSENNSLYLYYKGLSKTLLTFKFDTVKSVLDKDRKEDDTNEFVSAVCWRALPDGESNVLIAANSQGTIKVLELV

With `COCCc1ccc(OCC(O)CNC(C)C)cc1` (stereo not shown) [Metroprolol, reference compound], in data set [1], the “LogD @ pH 7.4” value is −0.04.
Take `COCCn1c(=O)c2cc(NC(=O)Nc3cccc(C(C)=O)c3)ccc2n(C)c1=O` [Compound 8, 1-(3-acetylphenyl)-3-(3-(2-methoxyethyl)-1-methyl-2,4-dioxo-1,2,3,4-tetrahydroquinazolin-6-yl)urea]: in the data set on ATGL [2], the “ATGL level (Western Blot)” value is given as “increased ATGL level” and the “induction of ATGL (Western Blot)” value is listed as “ability to induce ATGL”. For the same compound, at COP1, the “stabilization of COP1 (Western Blot)” value was “stabilize the COP1”. Further, in the data set with ATGL [3], the Fold change was found to be 1.34. In data set [4], the EC50 amounted to 17.8 nM.
Take `COCCn1c(=O)c2cc(NC(=O)Nc3cccc(C(C)=O)c3)ccc2n(CCCN2CCCCC2)c1=O` [Compound 91, 1-(3-acetylphenyl)-3-(3-(2-methoxyethyl)-2,4-dioxo-1-(3-(piperidin-1-yl)propyl)-1,2,3,4-tetrahydroquinazolin-6-yl)urea]: in the data set with ATGL [2], the “ATGL level (Western Blot)” value is given as “increased ATGL level” and the “induction of ATGL (Western Blot)” value was “ability to induce ATGL”. In addition, the “stabilization of COP1 (Western Blot)” value on COP1 is on record as “stabilize the COP1”. Besides, the Fold change with ATGL [3] is on record as 1.17.
In the case of `COCCn1c(=O)c2cc(NC(=O)Nc3cccc(C(C)=O)c3)ccc2n(C(C)C)c1=O` [Compound 11, 1-(3-acetylphenyl)-3-(1-isopropyl-3-(2-methoxyethyl)-2,4-dioxo-1,2,3,4-tetrahydroquinazolin-6-yl)urea], in the data set with ATGL [2], the “ATGL level (Western Blot)” value is “increased ATGL level” and the “induction of ATGL (Western Blot)” value is “ability to induce ATGL”. Further, in “Plasma stability assay”, the “Mean % remaining at 2 hrs in human Plasma” value (from here on “Mean % remaining at 2 hrs”) amounted to 80.80%. In addition, the “LogD @ pH 7.4” value in data set [1] is recorded as 2.67. This compound also showed a kinetic solubility at 24 hours in the data set “Kinetic solubility” of 2.8 µg/mL (≈ 6.39 µM). For the same compound, the “stabilization of COP1 (Western Blot)” value at COP1 was “stabilize the COP1”. Further, the “% QH (Well stirred model)” value in data set [5] was 40.30%. This compound showed a Fold change in the data set on ATGL [3] of 1.25. The compound also registered an EC50 in data set [4] of 100 nM.
`CC(C)[N+](C)(CCOC(=O)C1c2ccccc2Oc2ccccc21)C(C)C` [Propantheline, reference compound]: the “Mean % remaining at 2 hrs” value in “Plasma stability assay” was determined as 1.70%.
Regarding `COCCn1c(=O)c2cc(NC(=O)Nc3cccc(C(C)=O)c3)ccc2n(CCN2CCCC2)c1=O` [Compound 59, 1-(3-acetylphenyl)-3-(3-(2-methoxyethyl)-2,4-dioxo-1-(2-(pyrrolidin-1-yl)ethyl)-1,2,3,4-tetrahydroquinazolin-6-yl)urea], in the data set with ATGL [2], the “ATGL level (Western Blot)” value is “increased ATGL level” and the “induction of ATGL (Western Blot)” value was “ability to induce ATGL”. Moreover, the “Mean % remaining at 2 hrs” value in “Plasma stability assay” was 32.80%. For the same compound, in data set [1], the “LogD @ pH 7.4” value was 2.58. The compound further yielded a kinetic solubility at 24 hours in “Kinetic solubility” of 124 µg/mL (≈ 252 µM). Besides, the “stabilization of COP1 (Western Blot)” value at COP1 is given as “stabilize the COP1”. Moreover, the “% QH (Well stirred model)” value in data set [5] was determined as 17.46%. Moreover, the Fold change in the data set with ATGL [3] turned out to be 1.18. Besides, the concentration giving a half-maximal response (EC50) in data set [4] was found to be 209 nM.
Take `COCCn1c(=O)c2cc(NC(=O)Nc3cccc(C(C)=O)c3)ccc2n(CCN2CCOCC2)c1=O` [Compound 65, 1-(3-acetylphenyl)-3-(3-(2-methoxyethyl)-1-(2-morpholinoethyl)-2,4-dioxo-1,2,3,4-tetrahydroquinazolin-6-yl)urea]: the “induction of ATGL (Western Blot)” value with ATGL [2] is reported as “ability to induce ATGL”. In “Plasma stability assay”, the “Mean % remaining at 2 hrs” value is reported as 48.20%. The compound also registered a logD in data set [1] of 2.08. Moreover, in the data set “Kinetic solubility”, the solubility (kinetic) at 24 hours amounted to 20.8 µg/mL (≈ 40.8 µM). The “stabilization of COP1 (Western Blot)” value at COP1 was “stabilize the COP1”. Further, in data set [5], the “% QH (Well stirred model)” value is 62.0%. Moreover, the Fold change in the data set with ATGL [3] is reported as 1.44. The EC50 in data set [4] was 50 nM.

Usually EC50 stands for the concentration that produces a half-maximal response. Lower therefore signals an effect from little substance. One may read the solubility (kinetic) as the concentration staying in solution when a stock, usually in DMSO, is diluted into the medium. As usually defined, the logD is lipophilicity at a set pH, counting ionised and neutral species. The low end stands for a more hydrophilic compound, the high end for a more lipophilic compound.
